Results published in patent US20190185544A1, “COMPOSITIONS AND METHODS OF MODULATING ABETA PROTEIN” (University of South Florida, priority 2016, published 2019).

Tests used:
N-terminus of APP = assay: Co-immunoprecipitation and co-localisation with N-terminal APP in CHO/APPwt cells; format: binding, human; settings: peptides 10 μM or apoE 10 μg/mL, 2 h; IP with 6H3B5 or pN-APP
Method: Total secreted APP (t-sAPP) and full-length APP (f-APP) in total (inputs), immunoprecipitates and immunodepleted media and lysates were determined by WB using 22C11 or anti-C-terminal APP751/70 antibody (pC-APP), respectively (FIG. 20A left panels and FIG. 20B, top panels). Alternatively, conditioned media and cell lysates were IP with anti-N-terminal APP41/66 antibody (pN-APP) and apoE, or 6KApoEp and ApoEp, was determined using anti-human apoE antibody (ApoE1H4; FIG. 20A, right panels) or 6H3B5, respectively (FIG. 20B, bottom panels). In addition, CHO/APPwt cells were plated at 8 well-chambers at 1×10^5/well for 24 h, treated with 6K, ApoEp or 6KApoEp at 10 μM for 2 h, fixed in 4% paraformaldehyde and stained with 6H3B5 and pN-APP antibodies (FIG. 20C). Alexa Fluor 488 goat anti-mouse IgG (green) was used to detect ApoEp and 6KApoEp, while Alexa Fluor 594 donkey anti-rabbit IgG (red) was used to detect N-terminal APP. DAPI co-staining was done to show nuclear DNA. Homogenates prepared from three TgAPPwt mice (2 female/1 male), two AD patients (AD1[…], AD2[…]) and two normal age-matched control cortices (Ctrl1[…], Ctrl2[…]) were also IP with 6H3B5 or pN-APP and t-APP and apoE were determined using 6E10 and mApoE, respectively (FIGS. 20D-20E).
Total secreted APP in conditioned media and full length APP in cell lysates were then determined by WB using anti-N-terminal (22C11) and anti-C-terminal APP antibodies (pC-APP), respectively. […] In addition, ApoEp and 6KApoEp colocalized with N-terminal APP in cultured CHO/APPwt cells as determined by immunofluorescence staining with 6H3B5 and pN-APP antibodies (FIG. 20C), respectively, confirming that N-terminal APP physically associates with apoE in cell culture. […]
WB analyses were performed as previously described^43,44. […] For all other proteins detected by WB, 10% tris-SDS gels were used. Densitometry analysis was performed as previously described using a FluorS Multiimager with Quantity One™ software 43. […]

CHO/APPwt cells = assay: APP processing and cell surface protein expression in CHO/APPwt cells (ELISA, WB, biotinylation, flow cytometry, confocal microscopy); format: cell-based, Chinese hamster
Method: In addition, full-length APP (f-APP, short and long exp, exposure), α/β-CTF and total APP in cell lysates were analyzed by WB using anti-C-terminal APP750/70 (pC-APP, left panel, FIG. 23C) and anti-N-terminal APP antibody (6E10, right panel, FIG. 23C). Cell lysates were also biotinylated and immunoprecipitated using Neutravidin beads and intracellular proteins obtained by Neutravidin depletion (intra) and cell surface proteins obtained by Neutravidin precipitation (cell surf) were analyzed for f-APP, LDLR and LRP1 by WB using 6E10, anti-LDLR and anti-LRP1 (FIG. 23D). Band density ratios of cell surf or intra to total f-APP was determined by densitometry analysis (FIG. 23E). Cellular membrane associated full-length APP was analyzed by flow cytometry and presented as means±s.d. median FL-1-A (FIG. 23F). […] Asterisk indicates P<0.05 compared with Ctrl as determined by t test.
In addition, some of the cells were biotinylated, cell lysates were immunoprecipitated using Neutravidin beads and cell surface (cell surf) proteins obtained by Neutravidin precipitation, intracellular (intra) proteins obtained by Neutravidin depletion and total proteins were analyzed for full-length APP by WB using pC-APP (pAPP751/770) (FIG. 27B). […]

CHO/APPswe cells = assay: Aβ and β-CTF in CHO/APPwt compared with CHO/APPswe cells; format: cell-based, Chinese hamster; settings: apoE4 0, 5, 10 μg/mL or 6KApoEp 0, 5, 10 μM, 2 h, serum-free medium
Method: CHO cells engineered to express human wild-type APP (CHO/APPwt) or Swedish mutant APP (CHO/APPswe) were obtained. These cells were cultured in 96 or 24 well plates at 4×10^4 or 2×10^5 cells/well, respectively, in Dulbecco's modified Eagle's medium (DMEM) with 10% fetal bovine serum, 1 mM sodium pyruvate and 100 U/mL of penicillin/streptomycin (Invitrogen, Thermo Fisher Scientific). In addition, murine N2a cells transfected with APPwt (N2a/APPwt were obtained), SH-SY5Y cells transfected with APPswe and wild-type SH-SY5Y cells (ATCC, Manassas, Va.) were cultured as previously described^42. Primary hN2TM human neurons (Neuromics, Edina, Minn.) were cultured in hN2TM human neuron culture media and primary HCN2 human neurons (ATCC) were cultured in DMEM with 4 mM L-glutamine adjusted to contain 1.5 g/L sodium bicarbonate, 4.5 g/L glucose, fetal bovine serum (10%).

N-terminus of APP, sequence (P05067 18-189 limits assumed): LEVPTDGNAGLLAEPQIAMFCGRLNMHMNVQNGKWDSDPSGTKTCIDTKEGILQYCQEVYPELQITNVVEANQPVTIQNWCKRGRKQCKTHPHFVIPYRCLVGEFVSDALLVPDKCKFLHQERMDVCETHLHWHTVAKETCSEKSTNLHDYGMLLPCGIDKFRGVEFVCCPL

| Substance | immunoprecipitation and localization with N-terminal APP (N-terminus of APP) | Aβ, β-CTF and sAPPα levels (CHO/APPwt cells; 6KApoEp 10 μM, apoE4 10 μg/mL, 2 h) | cell surface protein levels of LDLR or LRP1 (CHO/APPwt cells; absence or presence of β- or γ-secretase inhibitors) | Aβ and β-CTF levels in CHO/APPwt compared with CHO/APPswe cells (CHO/APPswe cells) |
| --- | --- | --- | --- | --- |
| ApoE3: human recombinant apolipoprotein E3 protein (BioVision) | immunoprecipitated and localized with N-terminal APP in vivo and in vitro | – | – | – |
| ApoE4: human recombinant apolipoprotein E4 protein (BioVision) | immunoprecipitated and localized with N-terminal APP in vivo and in vitro | markedly increased Aβ and β-CTF levels, while reducing sAPPα levels | did not alter cell surface protein levels of LDLR or LRP1 | enhanced Aβ and β-CTF levels much more in CHO/APPwt cells compared with CHO cells overexpressing APP with the Swedish mutation |
